Patent US20220204497A1, “NOVEL COMPOUND HAVING ANTICANCER ACTIVITY, AND METHOD FOR PRODUCING SAME” (MEDICINAL BIOCONVERGENCE RESEARCH CENTER, priority 2019, published 2022)

How the values were obtained:
[1] = target: T1, AIMP2-DX2 (Homo sapiens, UniProt Q13155); assay: DX2-nanoluciferase assay (DX2 expression change) in transfected A549 cells; conditions: for inhibition at 40 µM / inhibition at 10 µM: A549, 4 h; for inhibition at 40 µM: read-out: DX-Nanoluciferase activity (40 μM), 40 μM, 4 hours treatment, A549 cells transfected with nanoluciferase-DX2; for inhibition at 10 µM: read-out: DX-Nanoluciferase activity (10 μM), 10 μM, 4 hours treatment, A549 cells transfected with nanoluciferase-DX2
T1 sequence (Q13155 1-251 isoform Q13155-2): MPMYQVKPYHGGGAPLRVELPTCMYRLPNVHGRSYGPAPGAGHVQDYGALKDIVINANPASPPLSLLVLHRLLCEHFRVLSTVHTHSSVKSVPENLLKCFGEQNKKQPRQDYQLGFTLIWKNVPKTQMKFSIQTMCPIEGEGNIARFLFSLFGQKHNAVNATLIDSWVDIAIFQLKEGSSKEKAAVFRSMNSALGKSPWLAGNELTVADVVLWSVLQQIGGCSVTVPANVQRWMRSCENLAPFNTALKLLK
Procedure: After cloning DX2 into a plasmid expressing nanoluciferase, the plasmid was transfected into A549 cells. Transfected cells were seeded 1×10^4 per well in a 96-well plate and stabilized for 12 hours. […] Cell viability was measured by the MTT method after 72 hours of treatment with each concentration of the compound in A549 cells.

[2] = system: A549 cells; assay: Cell viability by MTT method in A549 cells; format: cell-based; parameters: concentration or dose not given beside the values; conditions: 72 hours treatment
[3] = inhibitory effect on AIMP2-DX2 expression

Row | inhibition at 40 µM [1, 3] [%] | DX-Nanoluciferase activity (40 μM) ([1]; 40 μM, 4 hours treatment, A549 cells transfected with nanoluciferase-DX2, inhibitory effect on AIMP2-DX2 expression) | inhibition at 10 µM [1] [%] | Compound | Cell Viability (% inhibition) (A549) [2] [%]
1 | 55.8 ± 14.8 | – | – | Cc1ccc(S(=O)(=O)N[C@@H](CC(C)C)C(=O)N2CCOCCOCCOCC2)cc1 [Compound 3, (S)-4-methyl-N-(4-methyl-1-oxo-1-(1,4,7-trioxa-10-azacyclododecan-10-yl)pentan-2-yl)benzenesulfonamide] | 8.64
2 | 10.7 ± 12.8 | – | – | Cc1ccc(S(=O)(=O)N[C@H](CC(C)C)C(=O)N2CCOCCOCCOCC2)cc1 [Compound 4, (R)-4-methyl-N-(4-methyl-1-oxo-1-(1,4,7-trioxa-10-azacyclododecan-10-yl)-Pentan-2-yl)benzenesulfonamide] | 15.11
3 | 47.4 ± 7.4 | – | – | Cc1ccc(S(=O)(=O)N[C@@H](CC(C)C)C(=O)N2CCS(=O)(=O)CC2)cc1 [Compound 5, (S)—N-(1-(1,1-dioxidothiomorpholino)-4-methyl-1-oxopentan-2-yl)-4-methylbenzenesulfonamide] | 15.98
4 | 39.9 ± 7.4 | – | – | Cc1ccc(S(=O)(=O)N[C@@H](CC(C)C)C(=O)N2CCC[C@@H]2CO)cc1 [Compound 6, N—((S)-1-((R)-2-(hydroxymethyl)pyrrolidin-1-yl)-4-methyl-1-oxopentan-2-yl)-4-methylbenzenesulfonamide] | 15.98
5 | 18.3 | – | – | Cc1ccc(S(=O)(=O)N[C@@H](CC(C)C)C(=O)Nc2ccc(N3CCC(C)CC3)nc2)cc1 [Compound 9, (S)-4-Methyl-2-(4-methylphenylsulfonamido)-N-(6-(4-methylpiperidin-1-yl)pyridin-3-yl)pentanamide] | 78.3
6 | 1.5 | – | – | Cc1ccc(S(=O)(=O)N[C@@H](CC(C)C)C(=O)Nc2cc(N3CCC(C)CC3)ncn2)cc1 [Compound 10, (S)-4-methyl-2-(4-methylphenylsulfonamido)-N-(6-(4-methylpiperidin-1-yl)pyrimidin-4-yl)pentanamide] | 72.7
7 | 43.8 ± 8.7 | – | – | Cc1ccc(S(=O)(=O)N[C@@H](CC(C)C)C(=O)Nc2ccc(N3CCOCC3)nc2)cc1 [Compound 12, (S)-4-Methyl-2-(4-methylphenylsulfonamido)-N-(6-morpholinopyridin-3-yl)pentanamide] | 23.26
8 | 51.3 ± 4 | – | – | Cc1ccc(S(=O)(=O)N[C@@H](CC(C)C)C(=O)Nc2ccc(N3C[C@@H](C)O[C@@H](C)C3)nc2)cc1 [Compound 13, (S)—N-(6-((2S,6R)-2,6-dimethylmorpholino)pyridin-3-yl)-4-methyl-2-(4-methylphenylsulfonamido)pentanamide] | 14.99
9 | 55.6 ± 1.06 | – | – | Cc1ccc(S(=O)(=O)N[C@@H](CC(C)C)C(=O)Nc2ccc(N3CCOCC3)c(F)c2)cc1 [Compound 14, (S)—N-(3-fluoro-4-morpholinophenyl)-4-methyl-2-(4-methylphenylsulfonamido)pentanamide] | 29.87 ± 2.48
10 | 9.8 | – | – | Cc1ccc(S(=O)(=O)N[C@@H](CC(C)C)C(=O)Nc2ccc(N3CCN(C(=O)OC(C)(C)C)CC3)nc2)cc1 [Compound 16, (S)-tert-butyl 4-(5-(4-methyl-2-(4-methylphenylsulfonamido)pentanamido)pyridin-2-yl)piperazine-1-carboxylate] | 73.5
11 | 14.8 | – | – | Cc1ccc(S(=O)(=O)N[C@@H](CC(C)C)C(=O)NCCN2CCOCC2)cc1 [Compound 18, (S)-4-methyl-2-(4-methylphenylsulfonamido)-N-(2-morpholinoethyl)pentanamide] | 8.7
12 | 33.8 ± 8.2 | – | – | CC(C)C[C@H](NS(=O)(=O)c1cccc([N+](=O)[O-])c1)C(=O)N1CCOCC1 [Compound 19, (S)—N-(4-methyl-1-morpholino-1-oxopentan-2-yl)-3-nitrobenzenesulfonamide] | 22.61
13 | 31 ± 9.9 | – | – | CC(C)C[C@H](NS(=O)(=O)c1cccc(N)c1)C(=O)N1CCOCC1 [Compound 20, (S)-3-amino-N-(4-methyl-1-morpholino-1-oxopentan-2-yl)benzenesulfonamide] | 24.57
14 | 24.5 ± 4.4 | – | – | CC(C)C[C@H](NS(=O)(=O)c1ccc(C(F)(F)F)cc1)C(=O)Nc1ccc(N2CCOCC2)cc1 [Compound 23, (S)-4-methyl-N-(4-morpholinophenyl)-2-(4-(trifluoromethyl)phenylsulfonamido)pentanamide] | 64.35
15 | 59.4 ± 2.3 | – | – | CC(C)C[C@H](NS(=O)(=O)c1cccc([N+](=O)[O-])c1)C(=O)Nc1ccc(N2CCOCC2)cc1 [Compound 24, (S)-4-methyl-N-(4-morpholinophenyl)-2-(3-nitrophenylsulfonamido)pentanamide] | 18.38 ± 11.76
16 | 25.5 ± 5.4 | – | – | CC(C)C[C@H](NS(=O)(=O)c1cccc2ccccc12)C(=O)Nc1ccc(N2CCOCC2)cc1 [Compound 25, (S)-4-methyl-N-(4-morpholinophenyl)-2-(naphthalene-1-sulfonamido)pentanamide] | 38.92 ± 1.69
17 | 52.7 ± 10.5 | – | – | CC(C)C[C@H](NS(=O)(=O)c1ccc2ccccc2c1)C(=O)Nc1ccc(N2CCOCC2)cc1 [Compound 26, (S)-4-methyl-N-(4-morpholinophenyl)-2-(naphthalene-2-sulfonamido)pentanamide] | 5.95 ± 2.15
18 | – | 57.4 ± 8.4 | – | CC(C)C[C@H](NC(=O)CCS(=O)(=O)c1ccccc1)C(=O)OCc1ccccc1 [Compound 28, (S)-Benzyl 4-methyl-2-(3-(phenylsulfonyl)propanamido)pentanoate] | 12.43 ± 8.58
19 | 23.7 ± 3.1 | – | – | CC(C)C[C@H](NS(=O)(=O)c1cccs1)C(=O)Nc1ccc(N2CCOCC2)cc1 [Compound 30, (S)-4-methyl-N-(4-morpholinophenyl)-2-(thiophene-2-sulfonamido)pentanamide] | 9.46 ± 9.61
20 | 25.8 ± 2.5 | – | – | CC(C)C[C@H](NS(=O)(=O)c1ccc(C(C)C)cc1)C(=O)Nc1ccc(N2CCOCC2)cc1 [Compound 32, (S)-2-(4-isopropylphenylsulfonamido)-4-methyl-N-(4-morpholinophenyl)pentanamide] | 20.27 ± 5.87
21 | 34.4 ± 0.91 | – | – | CC(C)C[C@H](NS(=O)(=O)c1ccc(OCc2ccccc2)cc1)C(=O)N1CCOCCOCCOCC1 [Compound 34, (S)-4-(benzyloxy)-N-(4-methyl-1-oxo-1-(1,4,7-trioxa-10-azacyclododecan-10-yl)pentan-2-yl)benzenesulfonamide] | 38.82 ± 5.12
22 | 41.9 ± 1.66 | – | – | CC(C)C[C@H](NS(=O)(=O)c1ccc(O)cc1)C(=O)N1CCOCCOCCOCC1 [Compound 35, (S)-4-hydroxy-N-(4-methyl-1-oxo-1-(1,4,7-trioxa-10-azacyclododecan-10-yl)pentan-2-yl)benzenesulfonamide] | −1.97 ± 14.7
23 | 36.8 ± 2.25 | – | – | CC(C)C[C@H](NS(=O)(=O)c1ccc(C(=O)OCc2ccccc2)cc1)C(=O)N1CCOCCOCCOCC1 [Compound 36, (S)-benzyl 4-(N-(4-methyl-1-oxo-1-(1,4,7-trioxa-10-azacyclododecan-10-yl)pentan-2-yl)sulfamoyl)benzoate] | 64.40 ± 2.96
24 | 45 ± 7.8 | – | – | Cc1ccc(S(=O)(=O)N[C@@H](CC(=O)OC(C)(C)C)C(=O)N2CCOCC2)cc1 [Compound 37, (S)-tert-butyl 3-(4-methylphenylsulfonamido)-4-morpholino-4-oxobutanoate] | 20.33
25 | – | – | 25.2 ± 9.86 | COc1cc(N2CCN(C(C)=O)CC2)ccc1NC(=O)[C@H](Cc1c[nH]c2ccccc12)NS(=O)(=O)c1ccc(C)cc1 [Compound 161, (S)—N-(4-(4-Acetylpiperazin-1-yl)-2-methoxyphenyl)-3-(1H-indol-3-yl)-2-(4-methylphenylsulfonamido)propanamide] | –
26 | 1.52 ± 5.08 | – | – | Cc1ccc(S(=O)(=O)N[C@@H](Cc2c[nH]c3ccccc23)C(=O)NCc2ccco2)cc1 [Compound 178, (S)—N-(furan-2-ylmethyl)-3-(1H-indol-3-yl)-2-(4-methylphenylsulfonamido)propanamide] | –
27 | -4.97 ± 1.37 | – | – | O=C(NCc1ccco1)[C@H](Cc1c[nH]c2ccccc12)NS(=O)(=O)c1ccc(Br)cc1 [Compound 179, (S)-2-(4-Bromophenylsulfonamido)-N-(furan-2-ylmethyl)-3-(1H-indol-3-yl)propanamide] | –
28 | – | – | 29.6 ± 14 | O=C(Nc1nc(-c2ccc([N+](=O)[O-])cc2)cs1)[C@H](Cc1c[nH]c2ccccc12)NS(=O)(=O)c1ccc(Br)cc1 [Compound 190, (S)-2-(4-Bromophenylsulfonamido)-3-(1H-indol-3-yl)-N-(4-(4-nitrophenyl)thiazol-2-yl)propanamide] | –
29 | 45.4 ± 5.61 | – | 45.4 ± 5.61 | CCCCCCCCCC(=O)NNC(=O)[C@H](Cc1c[nH]c2ccccc12)NS(=O)(=O)c1ccc(Br)cc1 [Compound 195, (S)-4-Bromo-N-(1-(2-decanoylhydrazinyl)-3-(1H-indol-3-yl)-1-oxopropan-2-yl)benzenesulfonamide] | –
